Legend:
[1] = test system: pancreatic carcinoma cells; details: Mol Cancer Ther May 2009 8:1095-1105; cited from earlier work
[2] = test system: HMECs; test: LDH cytotoxicity assay after H2O2 in epithelial cells incubated in serum; type: cell-based, human; details: 200 ng/ml IGF-I added to GHRD serum, 700 μM H2O2
[3] = Body weight of mice immunized with human Growth Hormone; type: in vivo, mouse; details: 20 male and 20 female mice, versus time
Excerpt: FIG. 16A provides a plot of body weight of mice immunized with human Growth Hormone (huGH) (20 male and 20 female) versus time.
This figure provides a plot of body weight of mice immunized with human Growth Hormone (huGH) (20 male and 20 female) versus time.

[4] = Short term immunization with human GH before cyclophosphamide: body weight and complete blood count; type: in vivo, mouse; details: cyclophosphamide i.p., 300 mg/kg, CBC 7-days after CP
Method: FIG. 17A provides plots of the body weight of mice with short term immunization (STI) with human GH (half-filled arrowheads) after cyclophosphamide treatment (cyclophosphamide (CP) i.p., 300 mg/kg, indicated by the solid arrowhead) (Sham means treated with buffer and no chemo);
FIG. 17B provides a histogram of the complete blood count (CBC) 7-days after CP treatment (Data are presented as percentage of pre-chemo value);
FIG. 17A provides plots of the body weight of mice with short term immunization (STI) with human GH (half-filled arrowheads) after cyclophosphamide treatment (cyclophosphamide (CP) i.p., 300 mg/kg, indicated by solid arrowheads). FIG. 17B provides a histogram of the complete blood count (CBC) 7-days after CP treatment (Data are presented as percentage of pre-chemo value).

[5] = target: human GH (Homo sapiens, UniProt P01241); test: Slot blot of anti-huGH activity in serum from mice immunized with huGH; type: in vivo, mouse; details: slot blot against immobilized human GH
Chain of human GH (P01241 27-217): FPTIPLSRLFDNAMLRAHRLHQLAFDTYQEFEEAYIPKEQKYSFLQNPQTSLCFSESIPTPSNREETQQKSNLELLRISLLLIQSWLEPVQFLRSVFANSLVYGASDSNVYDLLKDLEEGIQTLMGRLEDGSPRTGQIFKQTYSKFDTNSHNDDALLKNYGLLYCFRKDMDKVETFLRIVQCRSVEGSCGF

[6] = test system: primary glial cells; test: 24 hour LDH release from primary glial cells under oxidative damage; type: cell-based
Method: FIG. 20 provides a plot of the 24 hour lactate dehydrogenase (LDH) release from the treatment of primary glial cells with the IGF-I inhibitor insulin-like growth factor-binding protein 1 (IGFBP1) and with insulin-like growth factor-binding protein 2 (IGFBP2). […] IGFBP1 is a strong IGF-I inhibtor. Other IGFBPs can even increase IGF-I signaling.

Molecule: AMG 479: fully human anti-insulin-like growth factor receptor type I monoclonal antibody
- Effect on pancreatic carcinoma cells [1]: inhibits the growth and survival of pancreatic carcinoma cells

Molecule: IGF-I: insulin like growth factor-I, added at 200 ng/ml to GHRD serum
- Effect on the higher cytotoxicity seen in GHRD serum [2]: completely reversed

Molecule: huGH: human Growth Hormone used to immunize mice to generate inhibitory antibodies against GH
- Body weight of immunized mice [3]: Lower body weight
- Effect of immunization on chemotherapy side effects (body weight, CBC) [4]: protective effect against chemotherapy side effects
- Immunized mice whose serum showed strong anti-huGH activity [5]: 34 out of 40

B1: IGFBP1: IGF-I inhibitor insulin-like growth factor-binding protein 1 (protein, UniProt P08833 26-259, looked up)
Insulin-like growth …: APWQCAPCSAEKLALCPPVSASCSEVTRSAGCGCCPMCALPLGAACGVATARCARGLSCRALPGEQQPLHALTRGQGACVQESDASAPHAAEAGSPESPESTEITEEELLDNFHLMAPSEEDHSILWDAISTYDGSKALHVTNIKKWKEPCRIELYRVVESLAKAQETSGEEISKFYLPNCNKNGFYHSRQCETSMDGEAGLCWCVYPWNGKRIPGSPEIRGDPNCQIYFNVQN
- Effect on oxidative damage (LDH release) [6]: protects them against oxidative damage
